Where two headings read alike, the source gives them in different places.
Tested on: A2780 cells
Experiment: In-vitro cell proliferation assay (SRB, 72 hours)
Format: cell-based
Details: read-out: Cell Proliferation (IC50)
[1] = Homo sapiens, A2780, 72 h, A2780 cells, 72 hours, SRB

SMILES	IC50 [1] [µM]	other results
Cc1nn(C)c(C)c1C(=O)N1CCC2(CC1)CC2CNC(=O)c1cc2ccncc2o1 (single isomer, unassigned) [Example 300, N-[[6-(1,3,5-trimethylpyrazole-4-carbonyl)-6-azaspiro[2.5]octan-2-yl]methyl]furo[2,3-c]pyridine-2-carboxamide]		IC50 (A2780 cells, 72 hours, SRB): 0.335 µM
Cc1nn(C)c(C)c1C(=O)N1CCC2(CC1)CC2CNC(=O)c1cc2ccncc2o1 (single isomer, unassigned) [Example 301, N-[[6-(1,3,5-trimethylpyrazole-4-carbonyl)-6-azaspiro[2.5]octan-2-yl]methyl]furo[2,3-c]pyridine-2-carboxamide]		IC50 (A2780 cells, 72 hours, SRB): 0.00421 µM
Cc1nc(C)c(C(=O)N2CCC3(CC2)CC3CNC(=O)c2cc3ccncc3o2)o1 (single isomer, unassigned) [Example 384, N-[[6-(2,4-dimethyloxazole-5-carbonyl)-6-azaspiro[2.5]octan-2-yl]methyl]furo[2,3-c]pyridine-2-carboxamide (single isomer)]	0.436	
O=C(NCC1CC12CCN(C(=O)C1CCOCC1)CC2)c1cc2cnccc2[nH]1 (stereo not drawn) [Example 10, N-[[8-(tetrahydropyran-4-carbonyl)-8-azaspiro[2.5]octan-2-yl]methyl]-1H-pyrrolo[3,2-c]pyridine-2-carboxamidc]	0.791	
CC(C)(C)OC(=O)N1CCC2(CC1)CC(CNC(=O)c1ccc3nccn3c1)C2 [Example 21, tert-butyl 2-((imidazo[1,2-a]pyridine-6-carboxamido)methyl]-7-azaspiro[3.5]nonane-7-carboxylate]	2	
O=C(NCC1CC12CCN(C(=O)CCC(F)(F)F)CC2)c1cc2ccncc2o1 (stereo not drawn) [Example 27, N-[[6-(4,4,4-trifluorobutanoyl)-6-azaspiro[2.5]octan-2-yl]methyl]furo[2,3-c]pyridine-2-carboxamide]	0.842	
CS(=O)(=O)c1cccc(CC(=O)N2CCC3(CC2)CC3CNC(=O)c2cc3ccncc3o2)c1 (stereo not drawn) [Example 28, N-[[6-[2-(3-methylsulfonylphenyl)acetyl]-6-azaspiro[2.5]octan-2-yl]methyl]furo[2,3-c]pyridine-2-carboxamide]	0.616	
CC(C)(C)CC(=O)N1CCC2(CC1)CC2CNC(=O)c1cc2ccncc2o1 (stereo not drawn) [Example 29, N-[[6-(3,3-dimethylbutanoyl)-6-azaspiro[2.5]octan-2-yl]methyl]furo[2,3-c]pyridine-2-carboxamide]	0.00303	
N#Cc1cccc(CC(=O)N2CCC3(CC2)CC3CNC(=O)c2cc3ccncc3o2)c1 (stereo not drawn) [Example 31, N-[[6-[2-(3-cyanophenyl)acetyl]-6-azaspiro[2.5]octan-2-yl]methyl]furo[2,3-c]pyridine-2-carboxamide]	0.0121	
Cc1cc(CC(=O)N2CCC3(CC2)CC3CNC(=O)c2cc3ccncc3o2)on1 (stereo not drawn) [Example 34, N-[[6-[2-(3-methylisoxazol-5-yl)acetyl]-6-azaspiro[2.5]octan-2-yl]methyl]furo[2,3-c]pyridine-2-carboxamide]	0.379	
CC(C)(C)OCC(=O)N1CCC2(CC1)CC2CNC(=O)c1cc2ccncc2o1 (stereo not drawn) [Example 38, N-[[6-(2-tert-butoxyacetyl)-6-azaspiro[2.5]octan-2-yl]methyl]furo[2,3-c]pyridine-2-carboxamide]	0.0188	
O=C(NCC1CC12CCN(C(=O)Cc1cccnc1)CC2)c1cc2ccncc2o1 (stereo not drawn) [Example 39, N-[[6-[2-(3-pyridyl)acetyl]-6-azaspiro[2.5]octan-2-yl]methyl]furo[2,3-c]pyndine-2-carboxamide]	0.232	
O=C(NCC1CC12CCN(C(=O)CC1CCN(CC(F)(F)F)CC1)CC2)c1cc2cnccc2[nH]1 (stereo not drawn) [Example 40, N-[[6-[2-[1-(2,2,2-trifluoroethyl)-4-piperidyl]acetyl]-6-azaspiro[2.5]octan-2-yl]methyl]-1H-pyrrolo[3,2-c]pyridine-2-carboxamide]	0.0243	
CC(C)CC(=O)N1CCC2(CC1)CC2CNC(=O)c1cc2cnccc2[nH]1 (stereo not drawn) [Example 46, N-[[6-(3-methylbutanoyl)-6-azaspiro[2.5]octan-2-yl]methyl]-1H-pyrrolo[3,2-c]pyridine-2-carboxamide]	0.402	
O=C(Cc1ccccc1)N1CCC2(CC1)CC2CNC(=O)N1Cc2ccncc2C1 (stereo not drawn) [Example 47, N-[[6-(2-phenylacetyl)-6-azaspiro[2.5]octan-2-yl]methyl]-1,3-dihydropyrrolo[3,4-c]pyridine-2-carboxamide]	0.0126	
O=C(NCC1CC12CCN(C(=O)Cc1cnccn1)CC2)c1cc2ccncc2o1 (stereo not drawn) [Example 50, N-[[6-(2-pyrazin-2-ylacetyl)-6-azasptro[2.5]octan-2-yl]methyl]furo[2,3-c]pyridine-2-carboxamide]	2	
CN(C)C(=O)CCC(=O)N1CCC2(CC1)CC2CNC(=O)c1cc2ccncc2o1 (stereo not drawn) [Example 55, N-[[6-[4-(dimethylamino)-4-oxo-butanoyl]-6-azaspiro[2.5]octan-2-yl]methyl]furo[2,3-c]pyridine-2-carboxamide]	2	
CN1CC(C(=O)N2CCC3(CC2)CC3CNC(=O)c2cc3ccncc3o2)CC1=O (stereo not drawn) [Example 56, N-[[6-(1-methyl-5-oxo-pyrrolidine-3-carbonyl)-6-azaspiro[2.5]octan-2-yl]methyl]furo[2,3-c]pyridine-2-carboxamide]	2	
O=C(NCC1CC12CCN(C(=O)C1CC1(F)F)CC2)c1cc2ccncc2o1 (stereo not drawn) [Example 58, N-[[6-(2,2-difluorocyclopropanecarbonyl)-6-azaspiro[2.5]octan-2-yl]methyl]furo(2,3-c]pyridine-2-carboxamide]		IC50 (Homo sapiens, A2780, 72 h): 2 µM
O=C(NCC1CC12CCN(C(=O)C1CCOC1)CC2)c1cc2ccncc2o1 (stereo not drawn) [Example 59, N-[[6-(tetrahydrofuran-3-carbonyl)-6-azaspiro[2.5]octan-2-yl]methyl]furo[2,3-c]pyridine-2-carboxamide]	2	
O=C(NCC1CC12CCN(C(=O)C1CCOCC1)CC2)c1cc2ccncc2o1 (stereo not drawn) [Example 60, N-[[6-(tetrahydropyran-4-carbonyl)-6-azaspiro[2.5]octan-2-yl]methyl]furo[2,3-c]pyridine-2-carboxamide]	1.53	
O=C(NCC1CC12CCN(C(=O)C1CCCO1)CC2)c1cc2ccncc2o1 (stereo not drawn) [Example 61, N-[[6-(tetrahydrofuran-2-carbonyl)-6-azaspiro[2.5]octan-2-yl]methyl]furo[2,3-c]pyridine-2-carboxamide]	2	
Cc1cc(C)n(CCC(=O)N2CCC3(CC2)CC3CNC(=O)c2cc3ccncc3o2)n1 (stereo not drawn) [Example 63, N-[[6-[3-(3,5-dimethylpyrazol-1-yl)propanoyl]-6-azaspiro[2.5]octan-2-yl]methyl]furo[2,3-c]pyridine-2-carboxamide]	1.39	
NC(=O)N1CCCC1C(=O)N1CCC2(CC1)CC2CNC(=O)c1cc2ccncc2o1 (stereo not drawn) [Example 64, N-[[6-(1-carbamoylpyrrolidine-2-carbonyl)-6-azaspiro[2.5]octan-2-yl]methyl]furo[2,3-c]pyridine-2-carboxamide]	2	

Now from value to compound, other results behind:

IC50 [1] [µM]	SMILES	other results
2	O=C(NCC1CC12CCN(C(=O)Cn1ccnc1)CC2)c1cc2ccncc2o1 (stereo not drawn) [Example 26, N-[[6-(2-imidazol-1-ylacetyl)-6-azaspiro[2.5]octan-2-yl]methyl]furo[2,3-c]pyridine-2-carboxamide]	
0.614	CN1CCN(CC(=O)N2CCC3(CC2)CC3CNC(=O)c2cc3ccncc3o2)CC1 (stereo not drawn) [Example 30, N-[[6-[2-(4-methylpiperazin-1-yl)acetyl]-6-azaspiro[2.5]octan-2-yl]methyl]furo[2,3-c]pyridine-2-carboxamide]	
2	O=C(NCC1CC12CCN(C(=O)CC1CC1)CC2)c1cc2ccncc2o1 (stereo not drawn) [Example 32, N-[[6-(2-cyclopropylacetyl)-6-azaspiro[2.5]octan-2-yl]methyl]furo[2,3-c]pyridine-2-carboxamide]	
2	O=C(NCC1CC12CCN(C(=O)CN1CCCC1)CC2)c1cc2ccncc2o1 (stereo not drawn) [Example 33, N-[[6-(2-pyrrolidin-1-ylacetyl)-6-azaspiro[2.5]octan-2-yl]methyl]furo[2,3-c]pyridine-2-carboxamide]	
2	O=C(NCC1CC12CCN(C(=O)CN1CCCCC1)CC2)c1cc2ccncc2o1 (stereo not drawn) [Example 35, N-[[6-[2-(1-piperidyl)acetyl]-6-azaspiro[2.5]octan-2-yl]methyl]furo[2,3-c]pyridine-2-carboxamide]	
0.185	O=C(NCC1CC12CCN(C(=O)CC1CCOCC1)CC2)c1cc2ccncc2o1 (stereo not drawn) [Example 36, N-[[6-(2-tetrahydropyran-4-ylacetyl)-6-azaspiro[2.5]octan-2-yl]methyl]furo[2,3-c]pyridine-2-carboxamide]	
0.643	O=C(NCC1CC12CCN(C(=O)CC1CCCO1)CC2)c1cc2ccncc2o1 (stereo not drawn) [Example 37, N-[[6-(2-tetrahydrofuran-2-ylacetyl)-6-azasptro[2.5]octan-2-yl]methyl]furo[2,3-c]pyridine-2-carboxamide]	
0.367	O=C(NCC1CC12CCN(C(=O)CN1CCOCC1)CC2)c1cc2ccncc2o1 (stereo not drawn) [Example 51, N-[[6-(2-morpholinoacetyl)-6-azaspiro[2.5]octan-2-yl]methyl]furo[2,3-c]pyridine-2-carboxamide]	
0.674	O=C(NCC1CC12CCN(C(=O)CC1CCCCO1)CC2)c1cc2ccncc2o1 (stereo not drawn) [Example 52, N-[[6-(2-tetrahydropyran-2-ylacetyl)-6-azaspiro[2.5]octan-2-yl]methyl]furo[2,3-c]pyridine-2-carboxamide]	
0.846	CC(C(=O)N1CCC2(CC1)CC2CNC(=O)c1cc2ccncc2o1)N1CCCC1 (stereo not drawn) [Example 53, N-[[6-(2-pyrrolidin-1-ylpropanoyl)-6-azaspiro[2.5]octan-2-yl]methyl]furo[2,3-c]pyridine-2-carboxamide]	
1.6	O=C(NCC1CC12CCN(C(=O)CN1CCCC1=O)CC2)c1cc2ccncc2o1 (stereo not drawn) [Example 57, N-[[6-[2-(2-oxopyrrolidin-1-yl)acetyl]-6-azaspiro[2.5]octan-2-yl)methyl]furo[2,3-c]pyridine-2-carboxamide]	
2	O=CNCC(=O)N1CCC2(CC1)CC2CNC(=O)c1cc2ccncc2o1 (stereo not drawn) [Example 62, N-[[6-(2-formamidoacetyl)-6-azaspiro[2.5]octan-2-yl]methyl]furo[2,3-c]pyridine-2-carboxamide]	

— patent US10730889B2, “Amido spirocyclic amide and sulfonamide derivatives” (Forma TM, LLC, priority 2012, dated 2020)
